Assays:
Format in all cases: in vivo
Venturia inaequalis = assay: Preventive activity against apple scab (Experiment 9); settings: apple seedlings sprayed at 300 ppm, inoculated after 24 hours, 3 days moist chamber then 10 days greenhouse; diseased area on third and fourth leaves
Procedure: Apple seedlings at the 3 - 4 leaf stage were sprayed with an aqueous suspension of the test compound at a concentration of 300 ppm (30 ml/3 pots). The seedlings were then kept for 24 hours at room temperature, after which they were inoculated with the fungus, Venturia inaequalis, by spraying a spore suspension of the fungus over the seedlings. After inoculation, the seedlings were kept in a moist chamber for 3 days at 20 - 22 °C and then moved to a greenhouse at 20 - 22°C for 10 days. The disease controlling index was given on the basis of the diseased area on the third and fourth leaves.

Candida albicans = assay: ED50 in mice infected with Candida albicans, oral treatment (Experiment 11); settings: treated orally
Procedure: Groups of mice (each group contained 10 mice) were inoculated with 7 to 9 x 10^6 spores per mouse of Candida albicans. 1, 4, and 24 hours after the inoculation, each mouse was orally administered 20 mg/kg of the test compound each time. The anti-fungal activity was assessed by the survival rate 9 days after infection. The survival rate was recorded as 0% 2 days after infection in an untreated (control) group. […] Following essentially the same procedure as that described in Experiment 10, mice were infected with Candida albicans, and treated orally with various compounds of the invention, as shown in the following Table 21. Fifteen days after infection (or fourteen days in the case of the compounds of Example Nos. 5 and 10), ED50 values were determined and are reported in the following Table 21.

Sphaerotheca fuliginea = assay: Preventive activity against powdery mildew of cucumber (Experiment 8); settings: cucumber seedlings sprayed at 300 ppm, inoculated after 24 hours, evaluated after 7 days in greenhouse; diseased area on third and fourth leaves
Procedure: Cucumber seedlings (variety Sagamihanpaku) at the 3 - 4 leaf stage were sprayed with an aqueous suspension of the test compound at a concentration of 300 ppm (30 ml/3 pots). The seedlings were then kept for 24 hours at room temperature, after which they were inoculated with conidida of Sphaerotheca fuliginea. After keeping the seedlings in a greenhouse for 7 days, the disease controlling index was evaluated on the basis of the diseased area on the third and fourth leaves.

Rhizoctonia solani [1] = assay: Preventive activity against sheath blight of rice plants (Experiment 2); set-up: key: 0 = disease as untreated, 5 = no disease (complete control); settings: rice seedlings (variety Nihonbare), sprayed at 100 ppm (30 ml/3 pots) 24 hours before inoculation, 5 days; height of the lesions
Procedure: Rice seedlings (variety Nihonbare) at the 4 - 5 leaf stage were sprayed with an aqueous suspension of the test compound at a concentration of 100 ppm (30 ml/3 pots). The seedlings were then kept for 24 hours at room temperature, after which they were inoculated with the fungus, Rhizoctonia solani, by placing 4 - 5 oat grains on which the fungus had previously been cultured around the base of each seedling. The seedlings were then kept in a moist chamber for 5 days at 25 - 27 °C. The disease controlling index was given on the basis of the height of the lesions formed on the rice seedlings.
Except in Table 12G, the compounds tested have the formula (1-1), in which Ar represents the group shown at the beginning of each part of the Table and R^1, R^2, X and Y are as defined in the Table.
(§1) The disease controlling index shown in the foregoing Tables 11 to 19 is indicated by the following codes: • 5--no disease (complete control) • 4--disease rate is less than 10% of the untreated plant • 3--disease rate is 10% - 30% of the untreated plant • 2--disease rate is 30% - 50% of the untreated plant • 1--disease rate is 50% - 70% of the untreated plant • 0--disease rate is almost same as the untreated plant.

Puccinia recondita = assay: Curative activity against leaf rust of wheat (Experiment 6); settings: wheat seedlings (variety Norin No 61), sprayed after inoculation at 3 ppm (30 ml/3 pots), 10 days; diseased area on the first leaf
Procedure: Wheat seedlings (variety Norin No 61) at the first leaf stage were inoculated with the fungus, Puccinia recondita, by spraying them with a spore suspension of the fungus. They were then kept in a moist chamber for 24 hours at 20 - 22 °C, after which they were moved to a greenhouse at 15 - 20 °C. […] The seedlings were then continuously kept in the greenhouse for 10 days. The disease controlling index was given on the basis of diseased area on the first leaf.

[2] = system: Erysiphe graminis f.sp. hordei; assay: Curative activity against powdery mildew of barley (Experiment 7); settings: barley seedlings (variety Sekishinriki), sprayed one day after inoculation at 3 ppm (30 ml/3 pots), further 10 days; diseased area on the first leaf
Procedure: Barley seedlings (variety […]) at the first leaf stage were inoculated with conidia of Erysiphe graminis f.sp. hordei and kept in a greenhouse at 15 - 20°C. After one day, the seedlings were sprayed with an aqueous suspension of the test compound at a concentration of 3 ppm (30 ml/3 pots), and they continued to be kept in the greenhouse at that temperature for a further 10 days. The disease controlling index was given on the basis of the diseased area on the first leaf.

Rhizoctonia solani [3] = assay: Preventive activity against sheath blight of rice plants by submerged application (Experiment 4); settings: rice seedlings (variety Nihonbare), applied to the water in the pots, 100 g per 10 ares, inoculated after 7 days, 5 days; height of the lesions
From the text: Rice seedlings (variety Nihonbare) at the 4 - 5 leaf stage grown in pots were flooded to a depth of 1 cm with water. The test compound was then applied to the water in the pots in an amount corresponding to 100 g per 10 ares. After keeping the seedlings in a greenhouse for 7 days, the water was drained from the pots and the seedlings were inoculated with the fungus, Rhizoctonia solani, by placing 4 - 5 oat grains on which the fungus had previously been cultured around the base of each seedling. The seedlings were then kept in a moist chamber for 5 days at 25 - 27 °C. The disease controlling index was given on the basis of the height of the lesions formed on the rice seedlings.
Except for Table 14F, the compounds tested have the formula (1-1), in which Ar represents the group shown at the beginning of each part of the Table and R^1, R^2, X and Y are as defined in the Table.
as §1

Rhizoctonia solani [4] = assay: Curative activity against sheath blight of rice plants (Experiment 3); set-up: key: 0 = disease as untreated, 5 = no disease (complete control); settings: rice seedlings (variety Nihonbare), sprayed 24 hours after inoculation at 10 ppm (30 ml/3 pots), further 5 days; height of the lesions
Procedure: Rice seedlings (variety Nihonbare) at the 4 - 5 leaf stage were inoculated with the fungus, Rhizoctonia solani, by placing 4 - 5 oat grains on which the fungus had previously been cultured around the base of each rice seedling and keeping them in a moist chamber at 25 - 27 °C. After 24 hours, the rice seedlings were sprayed with an aqueous suspension of the test compound at a concentration of 10 ppm (30 ml/3 pots) and they then continued to be kept in the moist chamber for a further 5 days. The disease controlling index was given on the basis of the height of the lesions formed on the rice seedlings.
(§2) The compounds tested have the formula (1-1), in which Ar represents the group shown at the beginning of each part of the Table and R^1, R^2, X and Y are as defined in the Table.
as §1

Gibberella Fujikuroi = assay: Activity against bakanae disease of rice plants by seed soaking (Experiment 5); set-up: key: 0 = disease as untreated, 5 = no disease (complete control); settings: infected rice seeds (variety Tanginbozu) immersed 3 days in aqueous suspension (concentration not given), 3 weeks; number of diseased seedlings
Procedure: Ten grams of rice seeds (variety Tanginbozu), infected with Gibberella Fujikuroi, were immersed in 20 ml of an aqueous suspension of the test compound for 3 days. At the end of this time, the treated seeds were densely sown in soil in pots, and the pots were placed in a greenhouse at 20 - 30 °C for 3 weeks. The disease controlling index was given on the basis of the number of diseased seedlings.
as §2, §1

Pyricularia oryzae = settings: rice seedlings (variety Sachikaze), sprayed 24 hours after inoculation at 10 ppm (30 ml/3 pots), further 6 days; number of lesions on the upper two leaves
[5] = 336 h, fourteen days after infection (Example Nos. 5 and 10)
[6] = 360 h, fifteen days after infection

| SMILES | Index (disease controlling index) (Venturia inaequalis) | ED50 (Candida albicans; [5]) [mg/kg] | Index (disease controlling index) (Sphaerotheca fuliginea) | disease controlling index (Rhizoctonia solani [1]) | disease controlling index (Puccinia recondita) | disease controlling index [2] | disease controlling index (Rhizoctonia solani [3]) | ED50 (Candida albicans; [6]) [mg/kg] | disease controlling index (Rhizoctonia solani [4]) | disease controlling index (Gibberella Fujikuroi) | disease controlling index (Pyricularia oryzae) |
| --- | --- | --- | --- | --- | --- | --- | --- | --- | --- | --- | --- |
| C[C@@H](NC(=O)c1ccc(Cl)cc1)[C@](O)(Cn1cncn1)c1ccc(Cl)cc1Cl (relative stereo) [Example 5, (2R*, 3R*)-3-(4-Chlorobenzoylamino)-2-(2,4-dichlorophenyl)-1-(1H-1,2,4-triazol-1-yl)-2-butanol] | 5 | 7.07 | 5 | 5 | 5 | 5 | 4 (disease rate is less than 10% of the untreated plant) | – | – | – | – |
| C[C@@H](NC(=O)c1ccc(C(F)(F)F)cc1)[C@](O)(Cn1cncn1)c1ccc(F)cc1F (relative stereo) [Example 17, (2R*, 3R*)-2-(2,4-0ifluorophenyl)-1-(1H-1,2,4-triazol-1-yl)-3-(4-trifluoromethylbenzoylamino)-2-butanol] | – | – | 4 (disease rate is less than 10% of the untreated plant) | 4 (disease rate is less than 10% of the untreated plant) | 5 | 5 | – | 0.86 | 4 (disease rate is less than 10% of the untreated plant) | 4 (disease rate is less than 10% of the untreated plant) | 5 |
| C[C@@H](SC(=O)c1ccc(C(F)(F)F)cc1)[C@](O)(Cn1cncn1)c1ccc(Cl)cc1Cl (relative stereo) [Example 46, (2R*, 3R*)-2-(2,4-Dichlorophenyl)-1-(1H-1 ,2,4-triazol-1-yl)-3-[4-(trifluoromethyl)benzoylthio]-2-butanol] | 5 | – | 5 | – | – | – | – | 0.73 | – | – | – |
| C[C@@H](N(C)C(=O)c1ccc(C(F)(F)F)cc1)[C@](O)(Cn1cncn1)c1ccc(F)cc1F (relative stereo) [Example 59, (2R^*, 3R*)-2-(2,4-Difluorophenyl)-3-{N-methyl-N-[4-(trifluoromethyl)benzoyl]amino}-1-(1H-1,2,4-triazol-1-yl)-2-butanol] | 5 | – | 5 | 5 | – | – | 4 (disease rate is less than 10% of the untreated plant) | 0.66 | 5 | 4 (disease rate is less than 10% of the untreated plant) | – |
| C[C@@H](NC(=O)c1ccc(Cl)cc1)[C@](O)(Cn1cncn1)c1ccc(Cl)cc1Cl [Example 10, (2R, 3R)-3-(4-Chlorobenzoylamino)-2-(2,4-dichlorophenyl)-1-(1H-1,2,4-triazol-1-yl)-2-butanol] | 5 | < 2.5 | 5 | 5 | – | – | – | – | 5 | 5 | 4 (disease rate is less than 10% of the untreated plant) |
| C[C@@H](NC(=O)c1ccc(C(F)(F)F)cc1F)[C@](O)(Cn1cncn1)c1ccc(F)cc1F [Example 65] | – | – | 5 | 5 | 5 | 5 | – | < 0.625 | 5 | 4 (disease rate is less than 10% of the untreated plant) | 5 |
